Results from US12139488B2, “Pyrido[3,2-d]pyrimidine compounds uses thereof for treating a proliferative disease” (Universite de Montreal, priority 2021, dated 2024).
Like-named read-outs stand apart in the source and are kept apart here.

Legend:
[1] = system: pERK in SW480 cells (KRAS G12D); experiment: Phospho-ERK inhibition (AlphaLISA), SW480; type: cell-based, human
Procedure: All cancer cell lines (A375, A101D, A2058, RKO, HT29 SK-MEL 30, IPC298, HepG2, HCT-116, Lovo, SWV620, SW480, NCI-H358, NCI-H2122, Calu-6, NCIH2087, NCIH1755, NCIH1666 and Mewo) were obtained from ATCC and cultured in RPMI-1640 medium (Gibco) supplemented with 5% heat inactivated fetal bovine serum (FBS, Wisent) at 37° C. under 5% CO2. Cells were maintained in T175 flasks (Greiner). They were passaged by removing the culture medium, washing once in 10 mL of room temperature Phosphate Buffered Saline (PBS; Wisent) and incubating at 37° C. with 2 mL of 0.05% Trypsin (Thermo-Fisher). Trypsin was then inactivated by adding complete growth medium and the cells were then replated in a T175 culture dish at the appropriate dilution. All cell lines were routinely tested for mycoplasma contamination. Tissue type and mutational status of each cell line can be found in Table B.
AlphaLISA® SureFire® Ultra™ p-ERK 1/2 (Thr202/Tyr204) analysis was conducted on cells plated in 100 μL of complete RPMI-1640 growth medium in 96-well flat-bottomed transparent dishes (Costar) at a density indicated in Table C. Cells were maintained overnight at 37° C. under 5% CO2 before treatment with compounds' dilution series for one hour. The cell density in cells/cm^2 corresponds to cell number divided by the area of one well of a 96-well plate ([…]).
In a dilution series 100 μL/well of test substance dilution prepared in complete RPMI-1640 growth media was added to the cells. The dilution series is selected so that ten concentrations cover a range from 10 μM to 0.33 nM. If necessary the initial concentration of 10 μM is increased to 100 μM or lowered to 1 μM (as in the case of A375 and H1666 cells, which are generally more sensitive to the compounds) and further dilution is carried out accordingly. The final concentration of DMSO in the assay is set at 0.5%.
After treatment, media was removed and cells were lysed in 50 μL of 1× AlphaScreen Ultra Lysis Buffer (Perkin Elmer). The AlphaLISA® SureFire® Ultra™ p-ERK 1/2 (Thr202/Tyr2O4) (PerkinElmer) reactions were performed with 5 μL of cell lysate according to the manufacturer's specifications in 384-well proxyplates (Perkin Elmer) followed by overnight incubation of the reactions at room temperature in a humidified chamber. After completion of the reactions, the signals were recorded on an EnVision plate reader (Perkin Elmer) using built in AlphaLISA® settings.
The effect of each compound dilution on the pERK signal was expressed in % inhibition and calculated as follows. An internal 100% inhibition control ([…] trametinib, cat #HY-10999; MedChem Express; CAS #871700-17-3) was included in each plate and used as a measure of pERK background. First, the value obtained for trametinib was subtracted from each data point. The average of DMSO (vehicle) controls (set as 0% inhibition) was established and used to calculate % inhibition: % inhibition=100*(1-((pERK signalcompound)/(pERK signalDMSO)))
The ability of each compound to inhibit pERK signal was expressed as an IC50 value obtained by plotting the inhibition values for each data point of a dilution series and fitting the obtained curves using a log(agonist) versus response-variable slope (four parameters) function using GraphPadPrism (V7.0) or Dotmatics Screening Ultra platform.
When present, paradoxical pERK induction is inferred from the negative % inhibition values observed in the pERK IC50 curves of a compound.

[2] = system: pERK in HCT-116 cells (KRAS G13D); experiment: Phospho-ERK inhibition (AlphaLISA SureFire Ultra p-ERK 1/2), HCT116; type: cell-based, human; settings: for HCT116 pERK % Ymin (lowest value of the IC50 curve): Ymin above −20% = minimal or no paradoxical activation
Outline: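 Cells plated in RPMI-1640 with 5% FBS, kept overnight at 37° C, then treated 1 h with ten-point dilutions (top usually 10 μM; 0.5% DMSO). Lysate p-ERK1/2 (Thr202/Tyr204) read by AlphaLISA SureFire Ultra. % inhibition set against DMSO after subtracting the trametinib background; IC50 from four-parameter fit.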

CRAF = CRAF (Homo sapiens, UniProt P04049); experiment: CRAF kinase activity assay (ADP-Glo); type: biochemical
CRAF, sequence (P04049 whole entry, looked up): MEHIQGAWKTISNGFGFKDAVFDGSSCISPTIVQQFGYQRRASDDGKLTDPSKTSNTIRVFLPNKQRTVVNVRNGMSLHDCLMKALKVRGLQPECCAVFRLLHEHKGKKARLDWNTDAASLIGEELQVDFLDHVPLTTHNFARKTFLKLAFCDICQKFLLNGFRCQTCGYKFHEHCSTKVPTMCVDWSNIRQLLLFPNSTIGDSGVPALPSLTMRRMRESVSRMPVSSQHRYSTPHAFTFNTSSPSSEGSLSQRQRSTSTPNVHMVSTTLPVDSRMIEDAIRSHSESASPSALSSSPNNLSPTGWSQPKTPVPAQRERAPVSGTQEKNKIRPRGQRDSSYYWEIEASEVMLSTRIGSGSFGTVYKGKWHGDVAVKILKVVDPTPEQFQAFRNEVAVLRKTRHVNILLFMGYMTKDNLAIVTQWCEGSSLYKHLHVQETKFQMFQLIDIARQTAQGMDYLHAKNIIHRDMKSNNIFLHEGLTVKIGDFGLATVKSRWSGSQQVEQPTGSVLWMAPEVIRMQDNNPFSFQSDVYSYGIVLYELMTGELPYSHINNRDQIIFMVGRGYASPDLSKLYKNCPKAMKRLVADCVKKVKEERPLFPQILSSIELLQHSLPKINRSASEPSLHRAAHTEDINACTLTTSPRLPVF
Procedure: (§1) Compound preparation: solid samples of each substances in 1 dram vials were suspended in DMSO (Fisher Scientific) at a stock concentration of 20 mM. Stocks were kept at −20° C. and protected from light.
(§2) In vitro enzymatic reactions were used for evaluating compounds intrinsic activity against BRAF, CRAF and ARAF. […] Separate reactions were performed with the MEK1 substrate and ATP as a blank control.
(§3) For compound treatment, 5 μL/well of test substance solution are placed in a 384-well proxyplate (Perkin Elmer) and mixed with 2× concentrated kinase reactions. The dilution series is selected so that nine concentrations cover a range from 100 nM to 0.01 nM. […] The final concentration of DMSO in the assay is set at 0.05%.
(§4) BRAF and CRAF kinase reactions were carried out for a total of 2 hours at 30° C. and then stopped by ½ dilution in ADP-Glo Reagent (cat #V9102; Promega; part V912C). Reactions were then incubated for 1h at room temperature before addition of one volume of Kinase Detection Reagent (cat #V9102; Promega; part V917A). Plates were then equilibrated at room temperature for 30 minutes before detection of luminescence on a Synergy Neo2 plate reader (Biotek). The effect of each compound dilution on BRAF and CRAF kinase activity was expressed as % inhibition and calculated as follows.
(§5) IC50 values were obtained by plotting the kinase inhibition values and fitting the dose-activity curves using a log(agonist) versus response-variable slope (four parameters) function using either GraphPadPrism (V7.0) or Dotmatics Screening Ultra platform.

BRAF = BRAF (Homo sapiens (Human), UniProt P15056); experiment: BRAF kinase activity assay (ADP-Glo); type: biochemical
BRAF, sequence (P15056 whole entry): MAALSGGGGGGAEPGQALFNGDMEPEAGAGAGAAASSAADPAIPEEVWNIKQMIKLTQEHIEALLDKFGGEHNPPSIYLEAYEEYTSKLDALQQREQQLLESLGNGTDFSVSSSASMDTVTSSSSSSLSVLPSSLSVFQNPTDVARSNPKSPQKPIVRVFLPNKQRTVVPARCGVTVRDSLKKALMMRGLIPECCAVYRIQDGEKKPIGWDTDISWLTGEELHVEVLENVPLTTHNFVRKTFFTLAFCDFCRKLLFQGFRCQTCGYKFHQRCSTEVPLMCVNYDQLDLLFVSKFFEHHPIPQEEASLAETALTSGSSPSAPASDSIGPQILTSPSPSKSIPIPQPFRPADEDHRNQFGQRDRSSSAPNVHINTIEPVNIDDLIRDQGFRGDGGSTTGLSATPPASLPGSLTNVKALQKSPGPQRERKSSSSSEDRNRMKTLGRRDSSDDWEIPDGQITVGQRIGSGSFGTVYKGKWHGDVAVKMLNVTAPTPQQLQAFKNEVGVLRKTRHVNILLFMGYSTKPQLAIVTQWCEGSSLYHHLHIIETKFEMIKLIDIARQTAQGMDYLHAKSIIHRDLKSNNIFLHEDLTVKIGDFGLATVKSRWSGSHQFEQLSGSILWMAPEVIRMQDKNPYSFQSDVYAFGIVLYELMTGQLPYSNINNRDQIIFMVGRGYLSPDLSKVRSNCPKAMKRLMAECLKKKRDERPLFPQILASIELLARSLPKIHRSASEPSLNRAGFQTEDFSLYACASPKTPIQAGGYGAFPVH
Procedure: as §1, §2, §3, §4, §5

[3] = SW480 cells, class symbol before the bracket
[4] = HCT116 cells, class symbol before the bracket
[5] = read-out: Kinase IC50 (nM) CRAF
[6] = read-out: Kinase IC50 (nM) BRAF
[7] = lowest % inhibition value of the IC50 curve, HCT116
[8] = CRAF, read-out: Kinase IC50 (nM), CRAF biochemical kinase assay
[9] = BRAF, read-out: Kinase IC50 (nM), BRAF biochemical kinase assay

| Compound | HCT116 pERK Ymin % ([2]; HCT116 cells, Ymin in brackets) [%] | IC50 [2, 4] [µM] | IC50 (CRAF; [5]) [nM] | IC50 (BRAF; [6]) [nM] | also measured |
| --- | --- | --- | --- | --- | --- |
| O=S(=O)(Nc1ccc(F)c(Nc2ncnc3ccc(-c4cncs4)nc23)c1F)c1ccccc1Cl [Ex 67] | −3.6 | 0.5 to 1 | 10 to 50 | 1 to 10 | SW480 pERK Ymin % ([1]; SW480 cells, Ymin in brackets): −1.3%; IC50 [1, 3]: 0.5 to 1 µM |
| CN(C)C(=O)c1cn(-c2ccc3ncnc(Nc4c(F)ccc(NS(=O)(=O)c5ccccc5Cl)c4F)c3n2)c2cccc(N)c12 [Example 96] | 12 | < 0.5 | > 50 | < 1 | SW480 pERK Ymin % ([1]; SW480 cells, Ymin in brackets): 12%; IC50 [1, 3]: < 0.5 µM |
| Cc1ncn(-c2ccc3ncnc(Nc4c(F)ccc(NS(=O)(=O)c5ccccc5Cl)c4F)c3n2)c1C [Ex 66] | −2 | 1 to 10 | 10 to 50 | 1 to 10 | SW480 pERK Ymin % ([1]; SW480 cells, Ymin in brackets): −5%; IC50 [1, 3]: 1 to 10 µM |
| COc1cncc(-c2ccc3ncnc(Nc4c(F)ccc(NS(=O)(=O)c5ccc(OC)cc5C)c4F)c3n2)c1 [Ex 62] | −9 | 1 to 10 | > 50 | > 10 | SW480 pERK Ymin % ([1]; SW480 cells, Ymin in brackets): 8%; IC50 [1, 3]: 1 to 10 µM |
| O=S(=O)(Nc1ccc(F)c(Nc2ncnc3ccc(-n4cnc5ccccc54)nc23)c1F)c1ccccc1Cl [Example 8] | – | – | < 10 | 1 to 10 | IC50 ([1]; SW480 cells, 1 h treatment): 0.5 to 1 µM; SW480 pERK Ymin % ([1]; lowest % inhibition value of the IC50 curve, SW480): 4.8%; IC50 ([2]; HCT116 cells, 1 h treatment): 0.5 to 1 µM; HCT116 pERK Ymin % [2, 7]: −2.5% |
| Cc1csc(S(=O)(=O)Nc2ccc(F)c(Nc3ncnc4ccc(-n5cnc6ccccc65)nc34)c2F)c1Cl [Example 316, N-(3-((6-(1H-benzo[d]imidazol-1-yl)pyrido[3,2-d]pyrimidin-4-yl)amino)-2,4-difluorophenyl)-3-chloro-4-methylthiophene-2-sulfonamide] | – | – | < 10 | < 1 | IC50 ([2]; Homo sapiens, HCT-116, HCT116 cells, 1 h treatment): 0.5 to 1 µM; HCT116 pERK Ymin % [2, 7]: −5% |
| NCC(=O)c1cn(-c2ccc3ncnc(Nc4c(F)ccc(NS(=O)(=O)c5ccccc5Cl)c4F)c3n2)c2ccccc12 [Example 223] | −9 | 1 to 10 | > 50 | 1 to 10 | – |
| O=S(=O)(Nc1ccc(F)c(Nc2ncnc3ccc(-n4cnc5nccnc54)nc23)c1F)c1cccc(Cl)c1Cl [Example 573] | – | – | – | – | IC50 ([2]; HCT116 cells): 1 to 10 µM; HCT116 pERK % Ymin (lowest value of the IC50 curve) ([2]; HCT116 cells): −1%; IC50 (CRAF; [8]): > 50 nM; IC50 (BRAF; [9]): > 10 nM |
| NCc1cccc2c1ncn2-c1ccc2ncnc(Nc3c(F)ccc(NS(=O)(=O)c4ccccc4Cl)c3F)c2n1 [Ex 217] | −9 | 1 to 10 | < 10 | < 1 | – |
| Cc1ncc(-c2ccc3ncnc(Nc4c(F)ccc(NS(=O)(=O)c5cccc(Cl)c5Cl)c4F)c3n2)[nH]1 [Example 595] | – | – | – | – | IC50 ([2]; HCT116 cells): 1 to 10 µM; HCT116 pERK % Ymin (lowest value of the IC50 curve) ([2]; HCT116 cells): −16%; IC50 (CRAF; [8]): 10 to 50 nM; IC50 (BRAF; [9]): 1 to 10 nM |
| O=S(=O)(Nc1ccc(F)c(Nc2ncnc3ccc(-n4cnc5c(C6CCNCC6)cccc54)nc23)c1F)c1cccc(Cl)c1Cl [Example 662, 2,3-dichloro-N-[2,4-difluoro-3-[[6-[4-(4-piperidyl)benzimidazol-1-yl]pyrido[3,2-d]pyrimidin-4-yl]amino]phenyl]benzenesulfonamide] | – | – | – | – | HCT116 pERK % Ymin (lowest value of the IC50 curve) ([2]; HCT116 cells): −6%; IC50 ([2]; Homo sapiens, HCT-116, HCT116 cells): 1 to 10 µM; IC50 (CRAF): < 10 nM; IC50 (BRAF; [9]): < 1 nM |
| O=S(=O)(Nc1ccc(F)c(Nc2ncnc3ccc(-n4cnc5c(N6C7CCC6CN(CCO)C7)cccc54)nc23)c1F)c1cccc(Cl)c1Cl [Example 629] | – | – | – | – | HCT116 pERK % Ymin (lowest value of the IC50 curve) ([2]; HCT116 cells): −2%; IC50 (CRAF; [8]): 10 to 50 nM; IC50 (BRAF; [9]): 1 to 10 nM |
| O=S(=O)(Nc1ccc(F)c(Nc2ncnc3ccc(-n4cnc5c(-c6cccnc6)cccc54)nc23)c1F)c1ccccc1Cl [Example 243] | −3.9 | < 0.5 | < 10 | 1 to 10 | – |
| CC(=O)N1CCCc2nn(-c3ccc4ncnc(Nc5c(F)ccc(NS(=O)(=O)c6cccc(Cl)c6Cl)c5F)c4n3)cc21 [Example 486] | – | – | – | – | IC50 ([2]; Homo sapiens, HCT-116, HCT116 cells, class symbol): 0.5 to 1 µM; IC50 (CRAF; § symbols, read-out: Kinase IC50): < 10 nM; IC50 (BRAF; first kinase column (c6), * symbols, read-out: Kinase IC50): 1 to 10 nM |
| O=S(=O)(Nc1ccc(F)c(Nc2ncnc3ccc(-n4nc(-c5ncc[nH]5)c5ccccc54)nc23)c1F)c1cccc(Cl)c1Cl [Example 212] | −13 | 1 to 10 | > 50 | 1 to 10 | – |
| O=S(=O)(Nc1cc(F)c(F)c(Nc2ncnc3ccc(-n4cnc5ccccc54)nc23)c1F)c1cccc(Cl)c1Cl [Example 648] | – | – | – | – | IC50 ([2]; HCT116 cells, Table 5): < 0.5 µM; HCT116 pERK Ymin % ([2]; lowest value of the curve, HCT116, Table 5): −1%; IC50 (CRAF; Table 5, read-out: Kinase IC50 (nM) CRAF): < 10 nM; IC50 (BRAF; Table 5, read-out: Kinase IC50 (nM) BRAF): 1 to 10 nM |
